Measurements taken from the supplement of paper PMC11208160.

Assay: recombinant barcode read abundance after kanamycin selection (control-corrected) (log10(CPM+1)); higher = more efficient recombination; sequences stand for … in AGTGCAGAGAAAATCGGCCAGTTTTCTCTGCCTGCAGTCCGCATGCCGT…ATTTATGCAGCGGACTGCCTTTCTCCCAAAGTGATAAACCGGACAGTATCATGGACCGGTTTTCCCGGTAATCCGTATTTGCAAGGTTGGTTTCACT; site = the 11-nt target
Procedure, shortened: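 Recombination efficiency in this pooled E. coli screen uses counts per million of barcodes at recombinant junctions, averaged and corrected against the control. The reported form is log10(CPM+1). Two replicates were plated on chloramphenicol/ampicillin LB agar as control and two on chloramphenicol/ampicillin/kanamycin with 0.1 mM IPTG.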

| Sequence | recombinant barcode read abundance (log10) |
| --- | --- |
| TGTATTCACTGGGTTCTAACCTGTTGCCTAG [TGTATTCCTAG_LTGcore_AC_RTGcore_CT] (site TGTATTCCTAG) (LTG core: AC, RTG core: CT) | 0.0447 |
| TGTATTCACTGGGTTCTAACCTGTTGCCTGT [TGTATTCCTAG_LTGcore_AC_RTGcore_AC] (site TGTATTCCTAG) (LTG core: AC, RTG core: AC) | 0.251 |
| TGTATTCCTTGGGTTCTAACCTGTTGCCTAA [TGTATTCCTAG_LTGcore_CT_RTGcore_TT] (site TGTATTCCTAG) (LTG core: CT, RTG core: TT) | 0.0404 |
| TGTATTCCTTGGGTTCTAACCTGTTGCCTGC [TGTATTCCTAG_LTGcore_CT_RTGcore_GC] (site TGTATTCCTAG) (LTG core: CT, RTG core: GC) | 0.133 |
| TGTATTCCTTGGGTTCTAACCTGTTGCCTGG [TGTATTCCTAG_LTGcore_CT_RTGcore_CC] (site TGTATTCCTAG) (LTG core: CT, RTG core: CC) | 0.0432 |
| TGTATTCCTTGGGTTCTAACCTGTTGCCTTT [TGTATTCCTAG_LTGcore_CT_RTGcore_AA] (site TGTATTCCTAG) (LTG core: CT, RTG core: AA) | 0.0134 |
| TGTATTCGCTGGGTTCTAACCTGTTGCCTAG [TGTATTCCTAG_LTGcore_GC_RTGcore_CT] (site TGTATTCCTAG) (LTG core: GC, RTG core: CT) | 0.0931 |
| TGTATTCGGTGGGTTCTAACCTGTTGCCTAG [TGTATTCCTAG_LTGcore_GG_RTGcore_CT] (site TGTATTCCTAG) (LTG core: GG, RTG core: CT) | 0.0184 |
| TGTATTCTATGGGTTCTAACCTGTTGCCTAG [TGTATTCCTAG_LTGcore_TA_RTGcore_CT] (site TGTATTCCTAG) (LTG core: TA, RTG core: CT) | 0.0251 |
| TGTATTCTCTGGGTTCTAACCTGTTGCCTGA [TGTATTCCTAG_LTGcore_TC_RTGcore_TC] (site TGTATTCCTAG) (LTG core: TC, RTG core: TC) | 0.141 |
| TGTATTCTGTGGGTTCTAACCTGTTGCCTAG [TGTATTCCTAG_LTGcore_TG_RTGcore_CT] (site TGTATTCCTAG) (LTG core: TG, RTG core: CT) | 0.0339 |
| TGTATTCTTTGGGTTCTAACCTGTTGCCTAA [TGTATTCCTAG_LTGcore_TT_RTGcore_TT] (site TGTATTCCTAG) (LTG core: TT, RTG core: TT) | 0.0888 |
| TTATAAAAATGGGTTCTAACCTGTTGCCTAG [TTATAAACTAG_LTGcore_AA_RTGcore_CT] (site TTATAAACTAG) (LTG core: AA, RTG core: CT) | 0.0784 |
| TTATAAACATGGGTTCTAACCTGTTGCCTTG [TTATAAACTAG_LTGcore_CA_RTGcore_CA] (site TTATAAACTAG) (LTG core: CA, RTG core: CA) | 0.0537 |
| TTATAAACCTGGGTTCTAACCTGTTGCCTAG [TTATAAACTAG_LTGcore_CC_RTGcore_CT] (site TTATAAACTAG) (LTG core: CC, RTG core: CT) | 0.437 |
| TTATAAACTTGGGTTCTAACCTGTTGCCTCC [TTATAAACTAG_LTGcore_CT_RTGcore_GG] (site TTATAAACTAG) (LTG core: CT, RTG core: GG) | 0.179 |
| TTATAAACTTGGGTTCTAACCTGTTGCCTGA [TTATAAACTAG_LTGcore_CT_RTGcore_TC] (site TTATAAACTAG) (LTG core: CT, RTG core: TC) | 0.137 |
| TTATAAACTTGGGTTCTAACCTGTTGCCTTC [TTATAAACTAG_LTGcore_CT_RTGcore_GA] (site TTATAAACTAG) (LTG core: CT, RTG core: GA) | 0.0607 |
| TTATAAAGCTGGGTTCTAACCTGTTGCCTAG [TTATAAACTAG_LTGcore_GC_RTGcore_CT] (site TTATAAACTAG) (LTG core: GC, RTG core: CT) | 0.0375 |
| TTATAAAGGTGGGTTCTAACCTGTTGCCTAG [TTATAAACTAG_LTGcore_GG_RTGcore_CT] (site TTATAAACTAG) (LTG core: GG, RTG core: CT) | 0.0816 |
| TTATAAATATGGGTTCTAACCTGTTGCCTAG [TTATAAACTAG_LTGcore_TA_RTGcore_CT] (site TTATAAACTAG) (LTG core: TA, RTG core: CT) | 0.124 |
